Assay results: PMC2364625, “Characterization and site-directed mutagenesis of Wzb, an O-phosphatase from Lactobacillus rhamnosus” (BMC Biochemistry, 2008)

Tests used:
Wzb [1] = target: T1, Wzb (Lacticaseibacillus rhamnosus, UniProt Q58Z13); experiment: pNPP hydrolysis, absorbance at […] nm; type: biochemical; details: 2.5 mM pNPP; MES-HEPES, 1% BSA; Cu2+ essential, Co2+ stimulates; optimum pH 7.3, 75 °C
T1 construct: 6His-tagged fusion, pQE30 (pGL387, wzb ORF in SacI-KpnI), E. coli NM522, purified under urea and renatured on Ni-NTA, 27 kDa; tag not reported as cut; forward primer starts at codon 2 (Ile)
T1 sequence (Q58Z13 2-254): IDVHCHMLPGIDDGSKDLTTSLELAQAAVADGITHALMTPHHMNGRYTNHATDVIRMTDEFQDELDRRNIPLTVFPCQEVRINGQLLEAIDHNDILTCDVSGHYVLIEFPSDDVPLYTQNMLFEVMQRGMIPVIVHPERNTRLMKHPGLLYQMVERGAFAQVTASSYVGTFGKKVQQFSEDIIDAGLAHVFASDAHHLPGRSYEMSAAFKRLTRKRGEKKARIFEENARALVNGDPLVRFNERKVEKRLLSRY

Wzb [2] = target: T1, Wzb; experiment: pNPP hydrolysis, absorbance at […] nm; type: biochemical; details: inhibitor; increasing inhibition from 1 mM to 100 mM, no residual activity at 100 mM (data not shown); substrate pNPP

Compound	pNPP hydrolysis, absorbance at 405 nm (Wzb [1])	inhibition (Wzb [2])
O=[N+]([O-])c1ccc(OP(=O)(O)O)cc1 [p-nitrophenyl-phosphate]	The purified Wzb fusion protein was active on p-nitrophenyl-phosphate (pNPP)	
[O]=[V]([OH])([OH])[OH] [sodium orthovanadate]		Wzb activity on pNPP was inhibited by sodium orthovanadate (Na3VO4)
